The text below walks through data of patent US20240067632A1, “WEE1 Degrading Compounds and Uses Thereof” (Bristol-Myers Squibb Company, priority 2022, published 2024).

The target in one assay is T1, WEE1 (Homo sapiens, UniProt P30291+Q96SW2).
T1 construct: C-terminal ePL-tagged (DiscoverX, Fremont, CA) full-length WEE1 expression construct; expressed in transfected cells; host or cells: LentiX-HEK293T (Invitrogen), lentiviral transduction; co-expressing GSPT1-GN (G576N, lacking the first 158 amino acids)
As to the kind of experiment: WEE1-ePL degradation assay (LentiX-WEE1-ePL-GSPT1-ND cells, InCELL Hunter luminescence, 4 h). The class given is cell-based. The settings on record: 293T-LentiX WEE1-ePL cells; for DC50: read-out: 293T-LentiX WEE1-ePL Degradation 4 hr (EC50). In short, it runs like this: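 LentiX-HEK293T cells stably expressing C-terminally ePL-tagged full-length WEE1 were treated with compounds in a 10-point, 3-fold dilution series starting at 1 uM or 10 uM for 4 h at 37 °C. Remaining WEE1-ePL was detected by InCELL Hunter luminescence, and EC50, Ymin and Ymax came from a four-parameter logistic fit against DMSO control.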

A further assay has as its system MKN45 cells. Briefly: MKN45 cell proliferation assay (Cell-Titer-Glo, 120 h). It counts as cell-based. To be noted: for EC50: Homo sapiens, MKN-45, 120 h, Cell-Titer-Glo, read-out: MKN45 Cell Prolif. 120 hr (EC50); for MKN45 Cell Prolif. 120 hr (Ymin-Obs): minimal percent of DMSO control observed in the concentrations tested. The procedure, abridged:
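Cells seeded at 400/well onto pre-printed 10-point half-log dilutions (top 1 or 10 uM, 0.1% DMSO final), in triplicate, and grown 120 h at 37 C. Viability by Cell-Titer-Glo luminescence, blank-subtracted and normalised to DMSO; EC50 from four-parameter logistic fit, with observed minimal % of control recorded as Ymin-obs.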

[1] abbreviates: lower limit of the fit (0 = luciferase inhibitor, Ymax = DMSO control).
[2] abbreviates: lower limit of the fit (Ymin=0 luciferase inhibitor, Ymax DMSO control).

Where two headings read alike, the source gives them in different places. A value given as a limit tells only on which side of the number the result lay.

Regarding `O=C1CCC(N2Cc3cc(O[C@H]4CCN(Cc5ccc6nc(COC7CCOCC7)ccc6c5)C4)ccc3C2=O)C(=O)N1` (stereo partly drawn) [3-(5-{[(3S)-1-({2-[(oxan-4-yloxy)methyl]quinolin-6-yl}methyl)pyrrolidin-3-yl]oxy}-1-oxo-2,3-dihydro-1H-isoindol-2-yl)piperidine-2,6-dione], on WEE1 (setting [1]), the “293T-LentiX WEE1-ePL Degradation 4 hr (Ymin)” value is recorded as 33. For the same compound, the DC50 on WEE1 is 4.73 nM. For the same compound, in the assay on MKN45 cells (growth inhibition), the EC50 amounted to 2.19 nM. Also, the “MKN45 Cell Prolif. 120 hr (Ymin-Obs)” value with MKN45 cells is listed as 7.295.

As for `CC(=O)N1CCN(c2ccc3cc(CN4CC[C@H](Oc5ccc6c(c5)CN([C@H]5CCC(=O)NC5=O)C6=O)C4)ccc3n2)CC1` [(3S)-3-(5-{[(3S)-1-{[2-(4-acetylpiperazin-1-yl)quinolin-6-yl]methyl}pyrrolidin-3-yl]oxy}-1-oxo-2,3-dihydro-1H-isoindol-2-yl)piperidine-2,6-dione], the “293T-LentiX WEE1-ePL Degradation 4 hr (Ymin)” value at WEE1 (setting [2]) is listed as 40.44. In addition, on WEE1, the DC50 was found to be 1.69 nM. Also, in the assay on MKN45 cells, the EC50 is 9.94 nM and the “MKN45 Cell Prolif. 120 hr (Ymin-Obs)” value worked out at 17.95.

In the case of `COC[C@H]1CCC[C@H](c2ccc3cc(CN4CC[C@H](Oc5ccc6c(c5)CN(C5CCC(=O)NC5=O)C6=O)C4)ccc3n2)C1` (stereo partly drawn) [3-(5-{[(3S)-1-({2-[(1S,3S)-3-(methoxymethyl)cyclohexyl]quinolin-6-yl}methyl)pyrrolidin-3-yl]oxy}-1-oxo-2,3-dihydro-1H-isoindol-2-yl)piperidine-2,6-dione], the “293T-LentiX WEE1-ePL Degradation 4 hr (Ymin)” value on WEE1 (setting [2]) was 32.49. Besides, on WEE1, the DC50 came out at 7.61 nM. In the assay with MKN45 cells, the EC50 amounted to 5.71 nM and the “MKN45 Cell Prolif. 120 hr (Ymin-Obs)” value is 11.34.

Turning to `O=C1CCC(N2Cc3cc(O[C@H]4CCN(Cc5ccc6nc(N7CC[C@@H](O)C7)ccc6c5)C4)ccc3C2=O)C(=O)N1` (stereo partly drawn) [3-(5-{[(3S)-1-({2-[(3R)-3-hydroxypyrrolidin-1-yl]quinolin-6-yl}methyl)pyrrolidin-3-yl]oxy}-1-oxo-2,3-dihydro-1H-isoindol-2-yl)piperidine-2,6-dione], the “293T-LentiX WEE1-ePL Degradation 4 hr (Ymin)” value at WEE1 (setting [1]) is given as 36. Further, the DC50 on WEE1 amounted to 17.5 nM. In addition, in the assay with MKN45 cells (growth inhibition), the EC50 came to 20.9 nM. Besides, the “MKN45 Cell Prolif. 120 hr (Ymin-Obs)” value with MKN45 cells was 11.85.

With `O=C1CCC(N2Cc3cc(O[C@H]4CCN(Cc5cnc6c(c5)COCC6)C4)ccc3C2=O)C(=O)N1` (stereo partly drawn) [3-(1-oxo-5-{[(3S)-1-({5H,7H,8H-pyrano[4,3-b]pyridin-3-yl}methyl)pyrrolidin-3-yl]oxy}-2,3-dihydro-1H-isoindol-2-yl)piperidine-2,6-dione], the “293T-LentiX WEE1-ePL Degradation 4 hr (Ymin)” value at WEE1 (setting [1]) is 35. The DC50 on WEE1 came to 39.9 nM. Also, the EC50 in the assay with MKN45 cells (growth inhibition) came to 456 nM. The “MKN45 Cell Prolif. 120 hr (Ymin-Obs)” value with MKN45 cells amounted to 11.67.

As for `Cc1ccc2cc(CN3CC[C@H](Oc4ccc5c(c4)CN(C4CCC(=O)NC4=O)C5=O)[C@@H]3C)ccc2n1` (stereo partly drawn) [3-(5-{[(2S,3S)-2-methyl-1-[(2-methylquinolin-6-yl)methyl]pyrrolidin-3-yl]oxy}-1-oxo-2,3-dihydro-1H-isoindol-2-yl)piperidine-2,6-dione], on WEE1 (setting [1]), the “293T-LentiX WEE1-ePL Degradation 4 hr (Ymin)” value worked out at 99.5. The EC50 in the assay with MKN45 cells (growth inhibition) was greater than 10000 nM. Further, the “MKN45 Cell Prolif. 120 hr (Ymin-Obs)” value in the assay with MKN45 cells is given as 87.455.

Turning to `COC[C@H]1CC[C@H](c2ccc3cc(CN4CC[C@H](Oc5ccc6c(c5)CN(C5CCC(=O)NC5=O)C6=O)C4)ccc3n2)CC1` (stereo partly drawn) [3-(1-oxo-5-{[(3S)-1-({2-[(1r,4r)-4-(methoxymethyl)cyclohexyl]quinolin-6-yl}methyl)pyrrolidin-3-yl]oxy}-2,3-dihydro-1H-isoindol-2-yl)piperidine-2,6-dione], the “293T-LentiX WEE1-ePL Degradation 4 hr (Ymin)” value on WEE1 (setting [1]) was 33.24. At WEE1, the DC50 was determined as 1.57 nM. For the same compound, the EC50 with MKN45 cells (growth inhibition) worked out at 2.56 nM. In addition, in the assay on MKN45 cells, the “MKN45 Cell Prolif. 120 hr (Ymin-Obs)” value was 14.13.

Regarding `C[C@@H]1CN(Cc2ccc3nc([C@@H]4CCOC4)ccc3c2)C[C@H]1Oc1ccc2c(c1)CN(C1CCC(=O)NC1=O)C2=O` (stereo partly drawn) [3-(5-{[(3S,4R)-4-methyl-1-({2-[(3S)-oxolan-3-yl]quinolin-6-yl}methyl)pyrrolidin-3-yl]oxy}-1-oxo-2,3-dihydro-1H-isoindol-2-yl)piperidine-2,6-dione], the “293T-LentiX WEE1-ePL Degradation 4 hr (Ymin)” value at WEE1 (setting [2]) came to 33.96. Further, the DC50 on WEE1 came out at 1.95 nM. Further, in the assay with MKN45 cells, the EC50 came out at 3.67 nM and the “MKN45 Cell Prolif. 120 hr (Ymin-Obs)” value is given as 10.01.

`N#Cc1ccc2cc(CN3CC[C@H](Oc4ccc5c(c4)CN(C4CCC(=O)NC4=O)C5=O)C3)ccc2n1` (stereo partly drawn) [6-{[(3S)-3-{[2-(2,6-dioxopiperidin-3-yl)-1-oxo-2,3-dihydro-1H-isoindol-5-yl]oxy}pyrrolidin-1-yl]methyl}quinoline-2-carbonitrile]: the “293T-LentiX WEE1-ePL Degradation 4 hr (Ymin)” value at WEE1 (setting [1]) came out at 27.49. For the same compound, the DC50 at WEE1 amounted to 3.05 nM. For the same compound, the EC50 with MKN45 cells (growth inhibition) was 7.92 nM. In addition, the “MKN45 Cell Prolif. 120 hr (Ymin-Obs)” value in the assay on MKN45 cells is given as 9.504.

As for `O=C1CCC(N2Cc3cc(O[C@H]4CCN(Cc5ccc6cccnc6c5)C4)ccc3C2=O)C(=O)N1` (stereo partly drawn) [3-(1-oxo-5-{[(3S)-1-[(quinolin-7-yl)methyl]pyrrolidin-3-yl]oxy}-2,3-dihydro-1H-isoindol-2-yl)piperidine-2,6-dione], on WEE1 (setting [1]), the “293T-LentiX WEE1-ePL Degradation 4 hr (Ymin)” value stood at 57. Besides, the DC50 on WEE1 came to 30.1 nM. Also, the EC50 with MKN45 cells (growth inhibition) is greater than 10000 nM. The “MKN45 Cell Prolif. 120 hr (Ymin-Obs)” value in the assay with MKN45 cells amounted to 76.22.

In the case of `O=C1CCC(N2Cc3cc(O[C@H]4CCN(Cc5ccc6nc([C@H]7C[C@@H](O)C7)ccc6c5)C4)ccc3C2=O)C(=O)N1` (stereo partly drawn) [3-(1-oxo-5-{[(3S)-1-({2-[(1s,3s)-3-hydroxycyclobutyl]quinolin-6-yl}methyl)pyrrolidin-3-yl]oxy}-2,3-dihydro-1H-isoindol-2-yl)piperidine-2,6-dione], the “293T-LentiX WEE1-ePL Degradation 4 hr (Ymin)” value at WEE1 (setting [1]) was 31. Besides, the DC50 at WEE1 worked out at 2.09 nM. For the same compound, in the assay on MKN45 cells (growth inhibition), the EC50 came to 5.21 nM. The “MKN45 Cell Prolif. 120 hr (Ymin-Obs)” value in the assay with MKN45 cells was found to be 6.89.

In the case of `O=C1CCC(N2Cc3cc(O[C@@H]4CN(Cc5ccc6nc(C7CCOCC7)ccc6c5)CC4(F)F)ccc3C2=O)C(=O)N1` (stereo partly drawn) [3-(5-{[(3R)-4,4-difluoro-1-{[2-(oxan-4-yl)quinolin-6-yl]methyl}pyrrolidin-3-yl]oxy}-1-oxo-2,3-dihydro-1H-isoindol-2-yl)piperidine-2,6-dione], the “293T-LentiX WEE1-ePL Degradation 4 hr (Ymin)” value on WEE1 (setting [1]) was 27.9. Further, the DC50 at WEE1 was 39.1 nM. Also, the EC50 in the assay on MKN45 cells (growth inhibition) was determined as 21.3 nM. Besides, the “MKN45 Cell Prolif. 120 hr (Ymin-Obs)” value with MKN45 cells turned out to be 10.78.

Consider `CC1(C)C[C@@H](c2ncc3cc(CN4CC[C@H](Oc5ccc6c(c5)CN([C@H]5CCC(=O)NC5=O)C6=O)C4)ccc3n2)CCO1` [(3S)-3-(5-{[(3S)-1-({2-[(4S)-2,2-dimethyloxan-4-yl]quinazolin-6-yl}methyl)pyrrolidin-3-yl]oxy}-1-oxo-2,3-dihydro-1H-isoindol-2-yl)piperidine-2,6-dione], for which the “293T-LentiX WEE1-ePL Degradation 4 hr (Ymin)” value on WEE1 (setting [2]) was found to be 26.33. The DC50 on WEE1 came out at 24.9 nM. Besides, in the assay on MKN45 cells, the EC50 was determined as 7.77 nM and the “MKN45 Cell Prolif. 120 hr (Ymin-Obs)” value worked out at 8.718.

`CC1(C)COCC[C@@H]1c1ccc2cc(CN3CC[C@H](Oc4ccc5c(c4)CN(C4CCC(=O)NC4=O)C5=O)C3)ccc2n1` (stereo partly drawn) [3-(5-{[(3S)-1-({2-[(4S)-3,3-dimethyloxan-4-yl]quinolin-6-yl}methyl)pyrrolidin-3-yl]oxy}-1-oxo-2,3-dihydro-1H-isoindol-2-yl)piperidine-2,6-dione]: the “293T-LentiX WEE1-ePL Degradation 4 hr (Ymin)” value on WEE1 (setting [1]) is 34. For the same compound, at WEE1, the DC50 turned out to be 1.78 nM. In the assay on MKN45 cells (growth inhibition), the EC50 was 1.7 nM. The “MKN45 Cell Prolif. 120 hr (Ymin-Obs)” value with MKN45 cells is on record as 6.945.

For the compound `O=C1CCC(N2Cc3cc(O[C@@H]4CN(Cc5ccc6nc(C7CCOCC7)ccc6c5)C[C@H]4F)ccc3C2=O)C(=O)N1` (stereo partly drawn) [3-(5-{[(3R,4R)-4-fluoro-1-{[2-(oxan-4-yl)quinolin-6-yl]methyl}pyrrolidin-3-yl]oxy}-1-oxo-2,3-dihydro-1H-isoindol-2-yl)piperidine-2,6-dione], on WEE1 (setting [1]), the “293T-LentiX WEE1-ePL Degradation 4 hr (Ymin)” value is reported as 36.81. Besides, the DC50 on WEE1 worked out at 14.6 nM. Besides, the EC50 in the assay on MKN45 cells (growth inhibition) was found to be 28.6 nM. Besides, in the assay on MKN45 cells, the “MKN45 Cell Prolif. 120 hr (Ymin-Obs)” value came out at 30.89.

In the case of `Cc1cc(CN2CC[C@H](Oc3ccc4c(c3)CN(C3CCC(=O)NC3=O)C4=O)C2)ccn1` (stereo partly drawn) [3-(5-{[(3S)-1-[(2-methylpyridin-4-yl)methyl]pyrrolidin-3-yl]oxy}-1-oxo-2,3-dihydro-1H-isoindol-2-yl)piperidine-2,6-dione], the “293T-LentiX WEE1-ePL Degradation 4 hr (Ymin)” value at WEE1 (setting [1]) is reported as 39.18. For the same compound, the DC50 on WEE1 is 39.5 nM. The 50% effective concentration (EC50) in the assay with MKN45 cells (growth inhibition) turned out to be 663 nM. Also, the “MKN45 Cell Prolif. 120 hr (Ymin-Obs)” value in the assay on MKN45 cells turned out to be 37.845.

`O=C1CCC(N2Cc3cc(O[C@H]4CCN(Cc5ccc6nc(N7C[C@H]8CC[C@@H](C7)O8)ncc6c5)C4)ccc3C2=O)C(=O)N1` (stereo partly drawn) [3-(5-{[(3S)-1-({2-[(1R,5S)-8-oxa-3-azabicyclo[3.2.1]octan-3-yl]quinazolin-6-yl}methyl)pyrrolidin-3-yl]oxy}-1-oxo-2,3-dihydro-1H-isoindol-2-yl)piperidine-2,6-dione]: the “293T-LentiX WEE1-ePL Degradation 4 hr (Ymin)” value at WEE1 (setting [1]) is listed as 35. In addition, the DC50 at WEE1 was 45.9 nM. Moreover, the half-maximal effective concentration (EC50) with MKN45 cells (growth inhibition) was found to be 15.6 nM. The “MKN45 Cell Prolif. 120 hr (Ymin-Obs)” value with MKN45 cells was 11.04.
